# System: HeLa cells
# Assay: Inhibition of HeLa cell growth monitored by resonant sensor frequency shift and microscope images
# Format: cell-based
# Details: Niclosamide at 15 μM in culture media
# Procedure: To investigate the inhibition effect of cell growth on the sensor response, HeLa cells were first grown until a drastic resonant frequency shift was observed. FIG. 11 is a plot of resonant frequency as a function of time shown as curve 537. Four times are identified as 5, 6, 7, and 8. FIG. 12 is a cell image at time 5 of FIG. 11. Niclosamide was introduced at time 6 of FIG. 11 into the culture media at 15 μM. […] FIG. 13 is a cell image at time 6 of FIG. 11. FIG. 14 is a cell image at time 7 of FIG. 11. FIG. 15 is a cell image at time 8 of FIG. 11.
smiles,measurement,setting,value
O=C(Nc1ccc([N+](=O)[O-])cc1Cl)c1cc(Cl)ccc1O [Niclosamide],resonant frequency shift of sensor after introducing drug,HeLa cells grown until drastic resonant frequency shift,almost an instantaneous stop in the resonant frequency shift
same,cell growth after introducing the drug (microscopic images),HeLa cells,stop of cell growth

# Reference: patent US20260023004A1, “SIGNAL ENHANCEMENT OF RESONANT SENSOR FOR CELL MEASUREMENTS” (lowa State University Research Foundation, Inc., priority 2022, published 2026)
